Measured values from patent US8242251B2, “Unsymmetrical cyanine dimer compounds and their application” (Life Technologies Corporation, priority 2003, dated 2012).
Entries after “also recorded” stand apart in the source; their conditions may differ.

Legend:
RNA versus DNA = experiment: Screening of fluorescence properties and relative fluorescence enhancement with RNA versus DNA (Table 3); assay type: binding; settings: fluorescence enhancement when associated with RNA to that when associated with DNA
[1] = tested on: HeLa human cervical cancer cells; experiment: Nucleic acid binding in live eukaryotic cells, HeLa (Example 41); assay type: cell-based
Description: (§1) Bovine pulmonary arterial endothelial (BPEA) cells and HeLa human cervical cancer cells were grown in media for one day after plating on coverslips. Cells were labeled with 1 μM or 10 μM of Compound 21 for HeLa cells, or 10 μM in BPAE cells, in media at 37° C. for 20 minutes, then rinsed twice and mounted in warm medium. Coverslips were examined on a Nikon Eclipse 800 upright fluorescent microscope and imaged with a far red filter set, a Princeton Instruments MicroMax cooled CCD camera, and Universal Imaging MetaMorph imaging software.

[2] = tested on: Bovine pulmonary arterial endothelial (BPEA) cells; experiment: Nucleic acid binding in live eukaryotic cells, BPAE (Example 41); assay type: cell-based; settings: 10 μM
Description: as §1

## C[n+]1c(/C=C2\C=C(N3CCN(C4=C/C(=C\c5oc6ccccc6[n+]5C)c5ccccc5N4c4ccccc4)CC3)N(c3ccccc3)c3ccccc32)oc2ccccc21.[Cl-].[Cl-] [Compound 20]
RNA versus DNA
  Fluorescence Enhancement Ratio (RNA/DNA): 8.5
[1]
  selective detection of RNA in live cells: did not demonstrate selective detection of RNA in live cells
[1]; 1 μM or 10 μM, far red filter set
  labeling pattern in HeLa cells: mitochondrial labeling, with stronger punctate spots within the mitochondria, typical of mitochondrial DNA staining; also recorded: very dim nucleolar labeling
[1]; 20 minutes 37° C.
  cell permeability in live cells: cell permeable
[2]
  labeling pattern in BPAE cells: no specific labeling evident, and much higher off-cell background
